“Also recorded” adds a separate entry of the source.
Legend:
PI3K = settings: Smirnova et al., 2012; cited from earlier work
HER3 = HER3 phosphorylation in HRG-stimulated MCF-7 cell lysates (immunoblot); settings: for Effect on phosphorylation (activation) of HER3: MCF-7 cell lysates, 1 μg/ml cytochalasin D 30 minutes, then 10 nM HRG 12 minutes
Procedure: (§3) MCF-7 cells were maintained in the same media as T-47D cells and supplemented additionally with 10 μg/ml insulin. Prior to experimental procedures, cells were cultured in DMEM supplemented only with 1% penicillin-streptomycin for 16 hrs. […] Cells were treated with 1 μg/ml Cytochalasin D for 30 minutes prior to addition of HRG.
(§4) Images were obtained using ChemiDoc™ XRS+ (BIO-RAD) and quantification was performed with Image Lab Software. […] All commercial antibodies were used according to manufacturer recommendations.

MTK1/HER3 association = assay: HRG-induced MTK1/HER3 association, MTK1 immunoprecipitation and immunoblot in MCF-7 cells; settings: then 10 nM HRG 12 minutes; for Effect on HRG-induced MTK1/HER3 association: MCF-7 cells pre-treated with 0, 50, 100 or 200 nM lapatinib for 1 hour, pTyr immunoblot of MTK1 IP
Procedure: as §3, §4
The cells were then washed twice with ice-cold 1× phosphate buffered saline pH 7.4. […] Immune complexes recovered using protein A-Sepharose beads (Sigma Cat# P3391) were washed twice with ice-cold lysis buffer and denatured with Laemmli sample buffer.

MCF-7 cells [1] = assay: HRG-induced extracellular acidification, media pH measurement; assay type: cell-based, human
Procedure: (§1) MCF-7 and T-47D cells were seeded in complete growth media at a density of 0.4×10^6 cells per well in 12-well plates (VWR #62406-165) for proliferation assays and 0.7×10^6 cells per well for pH measurements. Cells were allowed to adhere for 16 hours, followed by 4 hour serum starvation in DMEM, 1% penicillin-streptomycin without fetal bovine serum. […] Each condition was performed in triplicate and repeated a minimum of 3 times. After 24 hours, the cells were counted using a TC-10 Bio-Rad automated cell counter and the media pH was recorded using a pH meter probe. Data shown for each condition represents n=3. A two sided student t-test with standard deviation were used to perform statistical analyses on proliferation rates and media pH measurements. Statistical significance was determined by a p-value ≦0.05.
(§2) MCF-7 cells were seeded (onto 10 cm cell culture plates, VWR #353003) at a density of 5.0×10^6 cells and allowed to adhere for 16 hours. […] The cells were counted and seeded onto 12 well plates (VWR #62406-165) at a density of 0.7×10^6 cells per well for pH measurements and scratch assays or at density of 0.4×10^6 cells per well for proliferation assays. MTK1 knockdown efficiency was determined by immunoblot analysis using 150 μg whole cell lysate at 120 hours post-secondary transfection. […]

MCF-7 cells [2] = assay: Scratch assay, HRG-induced cell migration; assay type: cell-based, human; settings: 250 nM lapatinib pre-treatment, 10 nM HRG
Procedure: MCF-7 cells were seeded (onto 10 cm cell culture plates, VWR #353003) at a density of 5.0×10^6 cells and allowed to adhere for 16 hours. The cells were then transfected with 434 pmol of siRNA specific for MTK1 (Thermo Scientific ON-TARGETplus SMARTpool, Human MAP3K4 (4216) Cat #L-003789-00-0005) or non-targeting (NS) (ON-TARGETplus Non-targeting Pool Cat #D-001810-10-05) as control using lipofectamine 2000 according to manufacture recommendations. The cells were transfected with siRNA a second time 24 hours later using lipofectamine 2000 to enhance knockdown efficiency. Twenty-four hours after the second transfection the cells were detached using 0.25% trypsin (Invitrogen #15050-065). The cells were counted and seeded onto 12 well plates (VWR #62406-165) at a density of 0.7×10^6 cells per well for pH measurements and scratch assays or at density of 0.4×10^6 cells per well for proliferation assays. MTK1 knockdown efficiency was determined by immunoblot analysis using 150 μg whole cell lysate at 120 hours post-secondary transfection. Each condition was performed in triplicate and repeated a minimum of 3 times. Data shown for each condition represents n=3. Statistical analysis was performed as described above.
Scratch assays were performed in 12-well plates using MCF-7 cells at a density of 0.7×10^6 cells per well. […]

MCF-7 cells [3] = assay: Cell proliferation and viability (automated cell count, trypan blue); assay type: cell-based, human; settings: 10 nM HRG or 3.3 nM EGF, 24 hours
Procedure: as §1, §2

## Cc1ccc([N+](=O)[O-])cc1S(=O)(=O)N(C)/N=C/c1cnc2ccc(Br)cn12 [PIK-75]
PI3K
  Effect on cell motility and invasion: inhibits cell motility and invasion

## C=C1[C@@H](C)[C@H]2[C@H](Cc3ccccc3)NC(=O)[C@]23[C@H](OC(C)=O)/C=C/[C@@](C)(O)C(=O)[C@@H](C)C/C=C/[C@H]3[C@@H]1O [cytochalasin D]
HER3
  Effect on phosphorylation (activation) of HER3: not affected; also recorded: remained the same
HER3; listed as Cytochalasin D
  Effect on phosphorylation (activation) of HER3: no effect
MTK1/HER3 association; MCF-7 cells, 1 μg/ml cytochalasin D 30 minutes
  Effect on HRG-induced MTK1/HER3 association (in words): disrupted the communication or signaling between HER3/ErbB3 and MTK1; also recorded: inhibited HRG induced MTK1/HER3 association; also recorded: inhibited MTK1 and HER3 association
MTK1/HER3 association; MCF-7 cells, 1 μg/ml cytochalasin D 30 minutes, listed as Cytochalasin D
  Effect on HRG-induced MTK1/HER3 association (in words): diminished interaction between MTK1 and HER3
MTK1/HER3 association; MCF-7 cells, 1 μg/ml cytochalasin D 30 minutes, pY1289 HER3 immunoblot of MTK1 IP
  Decrease of interaction between HER3 and MTK1: ~60%

## CS(=O)(=O)CCNCc1ccc(-c2ccc3ncnc(Nc4ccc(OCc5cccc(F)c5)c(Cl)c4)c3c2)o1 [lapatinib]
MCF-7 cells [1]; 250 nM lapatinib pre-treatment, 10 nM HRG 24 hours, media pH
  Effect on HRG-induced extracellular acidification: significantly decreased; also recorded: inhibition of HRG-induced extracellular acidification
MCF-7 cells [2]
  Effect of lapatinib on HRG-induced cell migration: significantly decreased cell migration
HER3; MCF-7 cells, lapatinib 50-200 nM pre-treatment 1 hour, 10 nM HRG 12 minutes
  Effect on tyrosine phosphorylation of HER3 in lysates: effectively inhibited; also recorded: decreased
MTK1/HER3 association
  Effect on HRG-induced MTK1/HER3 association: effectively inhibited; also recorded: attenuates MTK1/HER3 association; also recorded: inhibited association of MTK1 and HER3
MTK1/HER3 association; listed as Lapatinib
  Effect on HRG-induced MTK1/HER3 association: decreased the interaction between HER3 and MTK1 in a dose dependent manner

## EGF: growth factor used to stimulate cells at 3.3 nM; activates EGFR and HER2 (NSDSECPLSHDGYCLHDGVCMYIEALDKYACNCVVGYIGERCQYRDLKWWELR; Epidermal growth factor; UniProt P01133 971-1023, looked up)
MCF-7 cells [1]; 10 nM HRG or 3.3 nM EGF, 24 hours, compared to vehicle
  Extracellular acidification of cell culture media by stimulation: no effect; also recorded: did not induce extracellular acidification
MCF-7 cells [3]
  Cell proliferation on stimulation: proliferative response was detected; also recorded: induced cell proliferation

Reference: patent publication US20150045407A1, “MTK1-ACTIN INHIBITORS AND METHODS OF USE” (THE ARIZONA BOARD OF REGENTS ON BEHALF OF THE UNIVERSITY OF …, priority 2013, published 2015)
